# Results taken from PMC8478281, “Targeting the FtsZ Allosteric Binding Site with a Novel Fluorescence Polarization Screen, Cytological and Structural Approaches for Antibacterial Discovery” (Journal of Medicinal Chemistry, 2021).
# Like-named read-outs stand apart in the source and are kept apart here.
# Assays:
# [1] = Solubility in HEPES buffer with 2% DMSO, spectrophotometric; type: physicochemical; conditions: HEPES buffer containing 2% DMSO, 25 °C, aqueous buffer, kinetic from dmso stock; HEPES buffer pH 6.8 containing 2% DMSO
# Procedure: 3.2. Solubility of Compounds. Stock solutions of compounds were prepared in
# DMSO (spectroscopic grade, Merck) a nd stored at -20 °C. Compound solubility in 50
# mM HEPES-KOH, 50 mM KCl, 1 mM EDTA, pH 6.8 (HEPES buffer) containing 2%
# DMSO was determined spectrophotometrically, monitoring the linear correlation
# between the absorbance and the compound concentration and the absence of light
# scattering. The solutions were optionally centrifuged at 100000 rpm for 20 min at 25 °C
# in a TLA100 rotor with a Beckman Optima Max -XP ultracentrifuge.
# [2] = biological target: T1, stabilized polymers of FtsZ from B. subtilis (Bacillus subtilis, UniProt P17865); assay: Competition assay: displacement of probe (R)-5 from stabilized BsFtsZ-GMPCPP polymers; type: binding; conditions: for Kd: stabilized polymers of FtsZ from B. subtilis, probe (R)-5, mean ± SEM, read-out: KD
# T1 construct: made in house
# T1 sequence (P17865 whole entry): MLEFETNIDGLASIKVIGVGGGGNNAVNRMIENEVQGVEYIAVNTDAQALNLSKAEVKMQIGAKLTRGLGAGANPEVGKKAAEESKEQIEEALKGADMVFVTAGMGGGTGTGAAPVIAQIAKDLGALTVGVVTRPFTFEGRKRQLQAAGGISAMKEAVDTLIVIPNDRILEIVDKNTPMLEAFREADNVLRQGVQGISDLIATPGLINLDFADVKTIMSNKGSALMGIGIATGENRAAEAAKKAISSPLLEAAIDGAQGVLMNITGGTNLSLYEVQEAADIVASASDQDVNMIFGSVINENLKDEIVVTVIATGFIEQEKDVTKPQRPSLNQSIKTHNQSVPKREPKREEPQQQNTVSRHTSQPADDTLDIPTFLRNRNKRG
# Procedure: (§1) FtsZ (10–15 μM) was assembled in HEPES buffer, 10 mM MgCl2, 50 μM GMPCPP at 25 °C for 10 min, and then 0.15% (v/v) glutaraldehyde[36] (distilled grade for microscopy, TAAB Laboratories, U.K.) was added to the solution that was incubated at 25 °C for 10 min more. (This was the minimal glutaraldehyde concentration determined to stabilize FtsZ polymers specifically binding probe 1.) The remains of the cross-linking agent were quenched by adding 60 mM NaBH4, the sample was incubated on ice for 10 min and degassed.[36] Cross-linked polymers were centrifuged for 10 min at 8200g (5000 rpm) and 4 °C in 15 mL Falcon tubes employing a Rotina 380R (Hettich) centrifuge, the supernatant was removed and the pellet was resuspended in the same volume of HEPES buffer, 10 mM MgCl2, containing 5 μM GMPCPP. Fixed FtsZ polymers were active in binding assays after more than 2 days at 4 °C; they could also be frozen in liquid nitrogen with a small loss of binding capacity. […] Cross-linked polymers of SaFtsZ were similarly prepared.
# Competition assays were performed by measuring, through the decrease in fluorescence anisotropy, the displacement of the fluorescent probes from stabilized FtsZ polymers. Increasing concentrations of competing ligands were added to the mixtures of cross-linked FtsZ polymers (10–15 μM) with probe 1 (3 μM), 7–8 μM FtsZ polymers with probe (S)-2 (3 μM), or 2–3 μM FtsZ polymers with (R)-5 (3 μM). HEPES buffer with 10 mM MgCl2 and 0.1 mM GMPCPP was employed, with a final volume of 0.5 mL, and the anisotropy measured at 25 °C. Under these conditions, the initial fraction of the probe bound was between 0.4 and 0.5. The fraction of the probe bound (Vb) was calculated [drawing 1] where rfree and rmax are the anisotropy values of the free and bound probes, respectively, and R is the ratio between the fluorescence intensities of the bound and free probe (Table S1). The binding data were plotted against the competing ligand concentration and fitted by competition equilibrium of the ligand and the probe for the same binding site. The resulting system of equations[50] was numerically solved using the Equigra v. 5.0 program,[33] which provided the best-fitted value of the competitor binding constant.
# [3] = test system: B. subtilis; assay: Minimal growth inhibitory concentration (broth macrodilution), B. subtilis; type: cell-based, Bacillus subtilis; conditions: for MIC: Bacillus subtilis; for MIC B. subtilis: Table S1, fluorescent probes
# Procedure: (§2) B. subtilis 168 and Staphylococcus spp. were grown in cation adjusted Mueller–Hinton broth (CAMHB; Becton, Dickinson and Company) at 37 °C. B. subtilis SU570 were grown in the same medium at 30 °C. In all cases, the cells were grown to an absorbance of 0.1–0.2 at 600 nm and then incubated either with the compounds or DMSO vehicle. Microscopy assays and cell measurement were performed as previously described.[31] MIC values were determined by a broth macrodilution method.[51] MBC values were determined as the lowest concentration of inhibitor at which there was a 99.9% reduction in colony-forming units/mL compared to the inoculum. To construct a S. aureus strain expressing FtsZ-mCherry, the plasmid pCN-ftsZmch[9] was electroporated into RN4220 and 0.1 μM cadmium chloride (Sigma-Aldrich) was used to induce the expression of the construct under the control of the Pcad promoter.
# [4] = test system: B. subtilis; assay: Minimal division inhibitory concentration and cell division phenotype, B. subtilis; type: cell-based, Bacillus subtilis; conditions: for minimal effective concentration: Bacillus subtilis, read-out: MDC B. subtilis; for toxicity to the bacterial cells, in words: B. subtilis cell division tests
# Procedure: as §2
# [5] = test system: S. aureus Mu50; assay: Minimal growth inhibitory concentration (broth macrodilution), S. aureus Mu50; type: cell-based, Staphylococcus aureus; conditions: for MIC: Staphylococcus aureus, MU50, read-out: MIC S. aureus Mu50; for MIC S. aureus Mu50: Table S1, fluorescent probes
# Procedure: as §2
# [6] = biological target: T2, BsFtsZ (Bacillus subtilis, UniProt P17865); assay: Fluorescence anisotropy of probes after consecutive additions of FtsZ, GMPCPP, MgCl2 and PC190723; type: binding; conditions: for Fluorescence anisotropy (r): free probe: probe 10 μM in buffer; for Fluorescence anisotropy (r): + FtsZ (unassbld.) / Fluorescence anisotropy (r): + GMPCPP / Fluorescence anisotropy (r): + MgCl2 (polymer): probe 10 μM, FtsZ 10 μM; for Fluorescence anisotropy (r): + GMPCPP / Fluorescence anisotropy (r): + MgCl2 (polymer): GMPCPP 0.1 mM; for Fluorescence anisotropy (r): + MgCl2 (polymer): MgCl2 10 mM, 5–10 min
# T2 construct: made in house
# T2 sequence (P17865 whole entry): as above
# Procedure: (A) Fluorescence anisotropy values of the free probes (10 μM) in buffer, to which FtsZ (10 μM, unassembled) was added, followed by the slowly hydrolyzable GTP analogue GMPCPP (0.1 mM). BsFtsZ polymerization was then induced by the addition of MgCl2 (10 mM) and anisotropy values were recorded 5–10 min later. Nonfluorescent PC190723 (10 μM) was subsequently added to displace the fluorescent probe and anisotropy was measured 5 min later. (B) Fluorescence microscopy images of B. subtilis cells treated for 1.5 h with the minimal division inhibitory concentrations (MDC) of (S)-2 and each enantiomer of 5 (Table S1), acquired employing the probe fluorescence.
# (§3) FtsZ from B. subtilis (BsFtsZ) was prepared as described previously.[35] FtsZ was assembled in 50 mM N-(2-hydroxyethyl)piperazine-N′-ethanesulfonic acid (HEPES)-KOH, 50 mM KCl, 1 mM ethylenediaminetetraacetic acid (EDTA), pH 6.8 (HEPES buffer) plus 10 mM MgCl2, and 1 mM GTP or 0.1 mM GMPCPP at 25 °C. FtsZ assembly was monitored by light scattering.[34]
# [7] = biological target: T3, FtsZ-GMPCPP polymers (BsFtsZ) (Bacillus subtilis, UniProt P17865); assay: Binding titration of the fluorescent probes to FtsZ polymers by fluorescence anisotropy; conditions: for Imax/Imin / rmax (all probe bound) / rmin (free probe) / Kd: FtsZ-GMPCPP polymers, best fit values from binding titrations
# T3 construct: made in house
# T3 sequence (P17865 whole entry): as above
# Procedure: as §3
# The fluorescence spectra and anisotropy values of the different probes were acquired with a Fluoromax-4 (Horiba Jobin Yvon) photon-counting L-format spectrofluorometer using 2 mm × 10 mm cells at 25 °C, employing the maximum excitation and emission wavelength for each probe with 2 and 5 nm bandwidths, respectively. Anisotropy values were automatically measured as r = (Ivv – G Ivh)/(Ivv + 2G Ivh), where the subscripts refer to the vertical (v) or horizontal (h) positions of the excitation (first subscript) and emission (second subscript) polarizers, and G = Ihv/Ihh. Total intensity values were simultaneously determined as IT = Ivv +2G Ivh. Note that measurement correction procedures with T-format (double channel) fluorometers and with plate readers are slightly different.
# as §1
# Binding affinity of the probes to FtsZ was measured by an increase in anisotropy of the probe (adapted from ref ([49])). Fixed concentrations of the probes (3 μM) were titrated with different FtsZ polymer concentrations (0–40 μM) in HEPES buffer with Mg^2+, to obtain the anisotropy increment, Δrmax, corresponding to the bound probe. The increase in anisotropy was plotted against the FtsZ polymer concentration (calculated by subtracting from the total protein concentration the critical concentration for polymerization under the same conditions) and iteratively least-squares fitted with an isotherm of binding to one site. The estimated values of Δrmax were used to approximate the free FtsZ concentrations, and these new values were employed again until an unchanging Δrmax value was obtained. The convergent data were used to calculate the binding constant of the fluorescent probe to FtsZ polymers (Table S1).
# [8] = PC190723 10 μM added to the polymer, 5 min
Molecule,solubility [1],Kd [2],MIC ([3]; read-out: MIC B. subtilis),minimal effective concentration [4],MIC [5],"Fluorescence anisotropy (r): + PC190723 [6, 8]",Fluorescence anisotropy (r): free probe [6],Fluorescence anisotropy (r): + FtsZ (unassbld.) [6],Fluorescence anisotropy (r): + GMPCPP [6],Fluorescence anisotropy (r): + MgCl2 (polymer) [6],other results
NC(=O)c1cccc(OCCc2cccc(Cl)c2)c1 [Compound 12],≥ 100 µM,7.1 ± 0.5 µM,100 µM,50 µM,> 100 µM,,,,,,
NC(=O)c1ccc(OCc2cccc(Cl)c2)cc1 [Compound 14],,,,,,,,,,,"MIC [3]: > 500 µM; toxicity to the bacterial cells, in words [4]: toxic"
CCC[C@@H](CNc1ccc([N+](=O)[O-])c2nonc12)Oc1ccc(F)c(C(N)=O)c1F [(S)-2],,,,,,0.065,0.037,0.041,0.044,0.172,MIC B. subtilis [3]: 250 µM; MIC S. aureus Mu50 [5]: > 250 µM; Imax/Imin [7]: 2.4; rmax (all probe bound) [7]: 0.258; rmin (free probe) [7]: 0.028; Kd [7]: 8 ± 1 µM
NC(=O)c1cccc(OCc2cccc(Cl)c2)c1 [Compound 11],100 µM,9.3 ± 0.5 µM,50 µM,50 µM,> 100 µM,,,,,,fold lower KD and MDC than 3-aminobenzamide analogue 6 [2]: more than 10 fold
CCCN(Cc1cccc(Cl)c1)c1cccc(C(N)=O)c1 [Compound 8],5 µM,,,,,,,,,,"toxicity to the bacterial cells, in words [4]: toxic to the bacterial cells"
"CCCC(CNc1ccc([N+](=O)[O-])c2nonc12)Oc1ccc(F)c(C(N)=O)c1F (stereo not drawn) [Compound 2, 2,6-Difluoro-3-[(1-{[(7-nitro-2,1,3-benzoxadiazol-4-yl)amino]methyl}butyl)oxy]benzamide]",,,,,,0.053,0.037,0.039,0.046,0.157,
NC(=O)c1c(F)ccc(OCc2ccccc2C(F)(F)F)c1F [Compound 19],50 µM,71 ± 6 µM,> 100 µM,> 100 µM,> 100 µM,,,,,,
"CCCC(COc1ccc(F)c(C(N)=O)c1F)Nc1ccc([N+](=O)[O-])c2nonc12 (stereo not drawn) [Compound 5, 2,6-Difluoro-3-{2-[(4-nitro-2,1,3-benzoxadiazol-7-yl)amino]pentoxy}benzamide]",,,,,,,0.031,0.034,0.036,0.203,Fluorescence anisotropy (r): + PC190723 ([6]; [PC190723] = 30 μM): 0.055
CCC[C@H](CNc1ccc([N+](=O)[O-])c2nonc12)Oc1ccc(F)c(C(N)=O)c1F [(R)-2],,,,,,0.051,0.037,0.046,0.050,0.081,"MIC B. subtilis [3]: > 250 µM; inhibition of B. subtilis cell division, in words [4]: inactive; MIC S. aureus Mu50 [5]: > 250 µM; Imax/Imin [7]: 1.0; rmax (all probe bound) [7]: 0.067; rmin (free probe) [7]: 0.038"
"2,6-Difluoro-3-[(1-{[(7-nitro-2,1,3-benzoxadiazol-4-yl)amino]methyl}nonyl)-oxy]benzamide [Compound 4]",,,,,,0.324,0.045,0.130,0.186,0.317,
"CCCCCC(CNc1ccc([N+](=O)[O-])c2nonc12)Oc1ccc(F)c(C(N)=O)c1F (stereo not drawn) [Compound 3, 2,6-Difluoro-3-[(1-{[(7-nitro-2,1,3-benzoxadiazol-4-yl)amino]methyl}hexyl)oxy]benzamide]",,,,,,0.135,0.049,0.104,0.115,0.261,
NC(=O)c1cccc(OCCCc2cccc(Cl)c2)c1 [Compound 13],25 µM,9.5 ± 0.5 µM,100 µM,25 µM,> 100 µM,,,,,,
NC(=O)c1c(F)ccc(OCc2ccc(C(F)(F)F)cc2)c1F [Compound 21],100 µM,6.7 ± 0.4 µM,50 µM,25 µM,100 µM,,,,,,
CCC[C@@H](COc1ccc(F)c(C(N)=O)c1F)Nc1ccc([N+](=O)[O-])c2nonc12 [(S)-5],,,,,,0.038,0.030,0.042,0.041,0.096,MIC B. subtilis [3]: 250 µM; MIC S. aureus Mu50 [5]: > 250 µM; fold reduced affinity with respect to (R)-5 [7]: 8 fold; Imax/Imin [7]: 1.7; rmax (all probe bound) [7]: 0.178; rmin (free probe) [7]: 0.025; Kd [7]: 15 ± 2 µM
